2 compounds from patent US11066693B2, “Methods for diagnosing LHRH or hCG/LH receptor expressing tumors, cancers and neoplasias” (ESPERANCE PHARMACEUTICALS, INC., priority 2009, dated 2021) can be followed below.

pIC50: −log10 of the molar value. Ends that are not written are not given here.

Data set [1] relates to MDA-MB-231 human breast cancer cell line. Briefly: In vitro cytotoxicity, MTT cell viability assay. It is filed as cell-based. The procedure:
Incubations were conducted for 24 h at 37° C.

In data set [2] the test system is AN3-CA human endometrial cancer cell line. The conditions noted are these: read-out: Cytotoxicity evaluated as IC50 value, 24 h at 37° C., MTT.
Experimental: (§1) Studies were designed to test receptor specificity, correlation of sensitivity to LHRH receptor expression and initial efficacy kinetics in vitro by comparing targeted kinetics to untargeted kinetics. […] Cytotoxicity was evaluated as IC50 value for each cell line.
(§2) Cell cultures were prepared in 96 well plates using 10,000 cells/well and were allowed to attach for 48 hours. […] Incubations were conducted for 24 h at 37° C. Cell viability was determined using formazan conversion assays (MTT assays). Controls contained USP saline or 0.1% TritonX-100™ as reference for 0 and 100% cell death, respectively.
(§3) Data were processed and analyzed using Graph Pad Prizm 4™ software (Graph Pad Prizm, Inc). Statistical analysis for significance was determined by a two-tailed Student's T-test.
In data set [3] the test system is OVCAR-3 ovarian cancer cell line. Conditions: read-out: Cytotoxicity evaluated as IC50 value; OVCAR-3, 24 h at 37° C., MTT.
Experimental: as §1, §2, §3
Data set [4] has as its system LNCaP prostate cancer cell line. The conditions noted are these: read-out: Cytotoxicity evaluated as IC50 value, 24 h at 37° C., MTT.
Experimental: as §1, §2, §3
Data set [5] relates to PC-3 prostate cancer cell line. The conditions noted are these: read-out: Cytotoxicity evaluated as IC50 value; PC-3, 24 h at 37° C., MTT.
Experimental: as §1, §2, §3
For data set [6], the system named is MDA-MB-4355 breast cancer cell line. The conditions noted are these: read-out: Cytotoxicity evaluated as IC50 value; MDA-MB-4355, highest LHRH receptor capacity, 24 h at 37° C., MTT.
Experimental: as §1, §2, §3
Data set [7] has as its system SKOV-3 LHRH receptor negative ovarian cancer cell line. The conditions noted are these: read-out: Cytotoxicity evaluated as IC50 value, 24 h at 37° C., MTT.
Experimental: as §1, §2, §3

In the case of `N.N.[Cl][Pt][Cl]` [cisplatinum, reference compound], in data set [1] (MDA-MB-231, multi drug resistant), the “Sensitivity of cell line to the drug” value is recorded as “insensitive”.

Consider KFAKFAKKFAKFAKKFAKQHWSYGLRPG [EP-100], for which the pIC50 is 5.26 in data set [1] (MDA-MB-231 (ER, Her2/neu, PR negative, multi drug resistant), 24 h at 37° C., MTT, read-out: Cytotoxicity evaluated as IC50 value); 5.48 in data set [2]; 5.52 in data set [3]; 5.82 in data set [4]; 5.26 in data set [5]; 6.10 in data set [6]. The pIC50 in data set [7] was below 5.00.
